target: T1, DPP-IV (dipeptidyl peptidase IV from porcine kidney) (Sus scrofa, UniProt P22411); experiment: Test of resistance to dipeptidyl peptidase IV (DPP-IV); type: in vitro ADME; details: half-life (t1/2) in DPP-IV solution at 37° C., GLP-1 of Comparative Example 1 defined as standard (=1)
T1 construct: dipeptidyl peptidase IV from porcine kidney, product of SIGMA; purchased SIGMA; host or cells: porcine kidney (tissue-derived enzyme)
Method: Each solution mixture was adjusted with 100 mM sodium phosphate buffer to 100 μl in total and allowed to react at 37° C. A 10 μaliquot of the reaction solution was mixed with 15 μl of 10% trifluoroacetic acid prepared in advance in another Eppendorf tube.

T1 sequence (P22411 whole entry): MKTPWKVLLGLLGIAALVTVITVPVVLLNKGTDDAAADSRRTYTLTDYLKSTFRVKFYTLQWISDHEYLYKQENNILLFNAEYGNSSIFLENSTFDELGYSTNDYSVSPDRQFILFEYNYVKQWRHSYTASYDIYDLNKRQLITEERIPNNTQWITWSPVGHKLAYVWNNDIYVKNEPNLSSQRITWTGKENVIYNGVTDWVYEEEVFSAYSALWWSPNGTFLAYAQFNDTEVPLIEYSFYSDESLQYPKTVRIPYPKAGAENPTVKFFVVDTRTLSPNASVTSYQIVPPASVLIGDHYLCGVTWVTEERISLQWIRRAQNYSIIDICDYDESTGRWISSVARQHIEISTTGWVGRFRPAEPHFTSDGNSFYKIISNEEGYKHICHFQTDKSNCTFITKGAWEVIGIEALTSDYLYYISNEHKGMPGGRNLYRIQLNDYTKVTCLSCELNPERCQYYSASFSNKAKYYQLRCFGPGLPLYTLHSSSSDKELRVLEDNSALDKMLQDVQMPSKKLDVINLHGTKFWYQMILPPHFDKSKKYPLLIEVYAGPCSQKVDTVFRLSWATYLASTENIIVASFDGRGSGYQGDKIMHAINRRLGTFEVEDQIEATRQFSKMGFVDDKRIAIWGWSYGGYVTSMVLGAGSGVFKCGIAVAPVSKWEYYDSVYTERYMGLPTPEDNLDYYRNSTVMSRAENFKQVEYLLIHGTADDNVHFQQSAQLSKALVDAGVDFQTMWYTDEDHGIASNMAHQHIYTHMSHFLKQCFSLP

Row | Compound | Relative Resistance
1 | CC[C@H](C)[C@H](NC(=O)[C@H](Cc1ccccc1)NC(=O)[C@H](CCC(=O)O)NC(=O)[C@H](CCCCN)NC(=O)[C@H](C)NC(=O)[C@H](C)NC(=O)[C@H](CCC(N)=O)NC(=O)[C@H](CSCC(=O)N[C@@H]1O[C@H](CO)[C@@H](O[C@@H]2O[C@H](CO)[C@@H](O[C@@H]3O[C@H](CO[C@H]4O[C@H](CO)[C@@H](O)[C@H](O)[C@@H]4O[C@@H]4O[C@H](CO)[C@@H](O[C@@H]5O[C@H](CO[C@]6(C(=O)O)C[C@H](O)[C@@H](NC(C)=O)[C@H]([C@H](O)[C@H](O)CO)O6)[C@H](O)[C@H](O)[C@H]5O)[C@H](O)[C@H]4NC(C)=O)[C@@H](O)[C@H](O[C@H]4O[C@H](CO)[C@@H](O)[C@H](O)[C@@H]4O[C@@H]4O[C@H](CO)[C@@H](O[C@@H]5O[C@H](CO[C@]6(C(=O)O)C[C@H](O)[C@@H](NC(C)=O)[C@H]([C@H](O)[C@H](O)CO)O6)[C@H](O)[C@H](O)[C@H]5O)[C@H](O)[C@H]4NC(C)=O)[C@@H]3O)[C@H](O)[C@H]2NC(C)=O)[C@H](O)[C@H]1NC(C)=O)NC(=O)[C@H](CCC(=O)O)NC(=O)[C@H](CC(C)C)NC(=O)[C@H](Cc1ccc(O)cc1)NC(=O)[C@H](CO)NC(=O)[C@H](CO)NC(=O)[C@@H](NC(=O)[C@H](CC(=O)O)NC(=O)[C@H](CO)NC(=O)[C@@H](NC(=O)[C@H](Cc1ccccc1)NC(=O)[C@@H](NC(=O)CNC(=O)[C@H](CCC(=O)O)NC(=O)[C@H](C)NC(=O)[C@@H](N)Cc1c[nH]cn1)[C@@H](C)O)[C@@H](C)O)C(C)C)C(=O)N[C@@H](C)C(=O)N[C@@H](Cc1c[nH]c2ccccc12)C(=O)N[C@@H](CC(C)C)C(=O)N[C@H](C(=O)N[C@@H](CCCCN)C(=O)NCC(=O)N[C@@H](CSCC(=O)N[C@@H]1O[C@H](CO)[C@@H](O[C@@H]2O[C@H](CO)[C@@H](O[C@@H]3O[C@H](CO[C@H]4O[C@H](CO)[C@@H](O)[C@H](O)[C@@H]4O[C@@H]4O[C@H](CO)[C@@H](O[C@@H]5O[C@H](CO[C@]6(C(=O)O)C[C@H](O)[C@@H](NC(C)=O)[C@H]([C@H](O)[C@H](O)CO)O6)[C@H](O)[C@H](O)[C@H]5O)[C@H](O)[C@H]4NC(C)=O)[C@@H](O)[C@H](O[C@H]4O[C@H](CO)[C@@H](O)[C@H](O)[C@@H]4O[C@@H]4O[C@H](CO)[C@@H](O[C@@H]5O[C@H](CO[C@]6(C(=O)O)C[C@H](O)[C@@H](NC(C)=O)[C@H]([C@H](O)[C@H](O)CO)O6)[C@H](O)[C@H](O)[C@H]5O)[C@H](O)[C@H]4NC(C)=O)[C@@H]3O)[C@H](O)[C@H]2NC(C)=O)[C@H](O)[C@H]1NC(C)=O)C(=O)NCC(=O)O)C(C)C [Example 4, 22 and 36Cys-disialo oligosaccharide Chain Added GLP-1] | 22.5
2 | CC[C@H](C)[C@H](NC(=O)[C@H](Cc1ccccc1)NC(=O)[C@H](CCC(=O)O)NC(=O)[C@H](CCCCN)NC(=O)[C@H](C)NC(=O)[C@H](C)NC(=O)[C@H](CCC(N)=O)NC(=O)CNC(=O)[C@H](CCC(=O)O)NC(=O)[C@H](CC(C)C)NC(=O)[C@H](Cc1ccc(O)cc1)NC(=O)[C@H](CO)NC(=O)[C@H](CO)NC(=O)[C@@H](NC(=O)[C@H](CC(=O)O)NC(=O)[C@H](CO)NC(=O)[C@@H](NC(=O)[C@H](Cc1ccccc1)NC(=O)[C@@H](NC(=O)CNC(=O)[C@H](CCC(=O)O)NC(=O)[C@H](C)NC(=O)[C@@H](N)Cc1c[nH]cn1)[C@@H](C)O)[C@@H](C)O)C(C)C)C(=O)N[C@@H](CSCC(=O)N[C@@H]1O[C@H](CO)[C@@H](O)[C@H](O[C@@H]2O[C@H](C(=O)O)[C@@H](O[C@@H]3O[C@H](CO)[C@@H](O)[C@H](O[C@@H]4O[C@H](C(=O)O)[C@@H](O[C@@H]5O[C@H](CO)[C@@H](O)[C@H](O[C@@H]6O[C@H](C(=O)O)[C@@H](O[C@@H]7O[C@H](CO)[C@@H](O)[C@H](O[C@@H]8O[C@H](C(=O)O)[C@@H](O[C@@H]9O[C@H](CO)[C@@H](O)[C@H](O[C@@H]%10O[C@H](C(=O)O)[C@@H](O[C@@H]%11O[C@H](CO)[C@@H](O)[C@H](O[C@@H]%12O[C@H](C(=O)O)[C@@H](O[C@@H]%13O[C@H](CO)[C@@H](O)[C@H](O[C@@H]%14O[C@H](C(=O)O)[C@@H](O[C@@H]%15O[C@H](CO)[C@@H](O)[C@H](O[C@@H]%16O[C@H](C(=O)O)[C@@H](O)[C@H](O)[C@H]%16O)[C@H]%15NC(C)=O)[C@H](O)[C@H]%14O)[C@H]%13NC(C)=O)[C@H](O)[C@H]%12O)[C@H]%11NC(C)=O)[C@H](O)[C@H]%10O)[C@H]9NC(C)=O)[C@H](O)[C@H]8O)[C@H]7NC(C)=O)[C@H](O)[C@H]6O)[C@H]5NC(C)=O)[C@H](O)[C@H]4O)[C@H]3NC(C)=O)[C@H](O)[C@H]2O)[C@H]1NC(C)=O)C(=O)N[C@@H](Cc1c[nH]c2ccccc12)C(=O)N[C@@H](CC(C)C)C(=O)N[C@H](C(=O)N[C@@H](CCCCN)C(=O)NCC(=O)N[C@@H](CCCNC(=N)N)C(=O)NCC(=O)O)C(C)C [Example 10, 30Cys-hyaluronic acid hexadecasaccharide (HA-16) Added GLP-1 Peptide] | 3.9
3 | CC[C@H](C)[C@H](NC(=O)[C@H](Cc1ccccc1)NC(=O)[C@H](CCC(=O)O)NC(=O)[C@H](CCCCN)NC(=O)[C@H](C)NC(=O)[C@H](C)NC(=O)[C@H](CCC(N)=O)NC(=O)CNC(=O)[C@H](CCC(=O)O)NC(=O)[C@H](CC(C)C)NC(=O)[C@H](Cc1ccc(O)cc1)NC(=O)[C@H](CO)NC(=O)[C@H](CO)NC(=O)[C@@H](NC(=O)[C@H](CC(=O)O)NC(=O)[C@H](CO)NC(=O)[C@@H](NC(=O)[C@H](Cc1ccccc1)NC(=O)[C@@H](NC(=O)CNC(=O)[C@H](CCC(=O)O)NC(=O)[C@H](C)NC(=O)[C@@H](N)Cc1c[nH]cn1)[C@@H](C)O)[C@@H](C)O)C(C)C)C(=O)N[C@@H](CSCC(=O)N[C@@H]1O[C@H](CO)[C@@H](O)[C@H](O[C@@H]2O[C@H](C(=O)O)[C@@H](O[C@@H]3O[C@H](CO)[C@@H](O)[C@H](O[C@@H]4O[C@H](C(=O)O)[C@@H](O[C@@H]5O[C@H](CO)[C@@H](O)[C@H](O[C@@H]6O[C@H](C(=O)O)[C@@H](O[C@@H]7O[C@H](CO)[C@@H](O)[C@H](O[C@@H]8O[C@H](C(=O)O)[C@@H](O)[C@H](O)[C@H]8O)[C@H]7NC(C)=O)[C@H](O)[C@H]6O)[C@H]5NC(C)=O)[C@H](O)[C@H]4O)[C@H]3NC(C)=O)[C@H](O)[C@H]2O)[C@H]1NC(C)=O)C(=O)N[C@@H](Cc1c[nH]c2ccccc12)C(=O)N[C@@H](CC(C)C)C(=O)N[C@H](C(=O)N[C@@H](CCCCN)C(=O)NCC(=O)N[C@@H](CCCNC(=N)N)C(=O)NCC(=O)O)C(C)C [Example 7, 30Cys-hyaluronic acid octasaccharide (HA-8) Added GLP-1 Peptide] | 3.4
4 | CC[C@H](C)[C@H](NC(=O)[C@H](Cc1ccccc1)NC(=O)[C@H](CCC(=O)O)NC(=O)[C@H](CCCCN)NC(=O)[C@H](C)NC(=O)[C@H](C)NC(=O)[C@H](CCC(N)=O)NC(=O)CNC(=O)[C@H](CCC(=O)O)NC(=O)[C@H](CC(C)C)NC(=O)[C@H](Cc1ccc(O)cc1)NC(=O)[C@H](CO)NC(=O)[C@H](CO)NC(=O)[C@@H](NC(=O)[C@H](CC(=O)O)NC(=O)[C@H](CO)NC(=O)[C@@H](NC(=O)[C@H](Cc1ccccc1)NC(=O)[C@@H](NC(=O)CNC(=O)[C@H](CCC(=O)O)NC(=O)[C@H](C)NC(=O)[C@@H](N)Cc1c[nH]cn1)[C@@H](C)O)[C@@H](C)O)C(C)C)C(=O)N[C@@H](C)C(=O)N[C@@H](Cc1c[nH]c2ccccc12)C(=O)N[C@@H](CC(C)C)C(=O)N[C@H](C(=O)N[C@@H](CCCCN)C(=O)NCC(=O)N[C@@H](CSCC(=O)N[C@@H]1O[C@H](CO)[C@@H](O)[C@H](O[C@@H]2O[C@H](C(=O)O)[C@@H](O[C@@H]3O[C@H](CO)[C@@H](O)[C@H](O[C@@H]4O[C@H](C(=O)O)[C@@H](O)[C@H](O)[C@H]4O)[C@H]3NC(C)=O)[C@H](O)[C@H]2O)[C@H]1NC(C)=O)C(=O)NCC(=O)O)C(C)C [Example 8, 36Cys-hyaluronic acid tetrasaccharide (HA-4) Added GLP-1 Peptide] | 2.2

Source: US8765669B2, “Glycosylated GLP-1 peptide” (Glytech, Inc., priority 2008, dated 2014)
